Results as given in patent US20140249024A1, “Pesticidal Methods Using Substituted 3-pyridyl Thiazole Compounds and Derivatives for Combating Animal Pests II” (BASF SE, priority 2011, published 2014).

What was measured:
Assay type in all cases: in vivo
[1] = system: Green Peach Aphid (Myzus persicae); assay: Green peach aphid mortality on sprayed bell pepper plants; conditions: 120 h, spray on infested bell pepper plants, determined after 5 days, read-out: mortality in comparison with untreated controls
Source text: (§1) The active compounds were formulated in cyclohexanone as a 10,000 ppm solution supplied in tubes. The tubes were inserted into an automated electrostatic sprayer equipped with an atomizing nozzle and they served as stock solutions for which lower dilutions were made in 50% acetone:50% water (v/v). A nonionic surfactant (Kinetic®) was included in the solution at a volume of 0.01% (v/v).
Bell pepper plants at the first true-leaf stage were infested prior to treatment by placing heavily infested leaves from the main colony on top of the treatment plants. Aphids were allowed to transfer overnight to accomplish an infestation of 30-50 aphids per plant and the host leaves were removed. The infested plants were then sprayed by an automated electrostatic plant sprayer equipped with an atomizing spray nozzle. The plants were dried in the sprayer fume hood, removed, and then maintained in a growth room under fluorescent lighting in a 24-hr photoperiod at about 25° C. and about 20-40% relative humidity. Aphid mortality on the treated plants, relative to mortality on untreated control plants, was determined after 5 days.

[2] = system: Cotton Aphid (Aphis gossypii); assay: Cotton aphid mortality on dipped cotton cotyledons; conditions: 120 h, mortality counts after 5 days, read-out: mortality in comparison with untreated controls
Source text: The active compounds were formulated in 50:50 (vol:vol) acetone: water and 100 ppm Kinetica™ surfactant.
Cotton plants at the cotyledon stage (one plant per pot) weare infested by placing a heavily infested leaf from the main colony on top of each cotyledon. The aphids were allowed to transfer to the host plant overnight, and the leaf used to transfer the aphids was removed. The cotyledons were dipped in the test solution and allowed to dry. After 5 days, mortality counts were made.

[3] = system: Cowpea Aphid (Aphis craccivora); assay: Cowpea aphid test on sprayed potted cowpea plants; conditions: spray on cowpea plants, population reduction assessed after 24, 72 and 120 hours, read-out: mortality in comparison with untreated controls
Method: The active compound was dissolved at the desired concentration in a mixture of 1:1 (vol:vol) distilled water:acetone. The test solution was prepared at the day of use.
Potted cowpea plants colonized with approximately 100-150 aphids of various stages were sprayed after the pest population had been recorded. Population reduction was assessed after 24, 72, and 120 hours.

[4] = system: Silverleaf Whitefly (bemisia argentifolii); assay: Silverleaf whitefly adult mortality on sprayed cotton plants; conditions: 72 h, spray on cotton plants, whitefly adults, assessed 3 days after treatment, read-out: mortality in comparison with untreated controls
Source text: as §1, with “they serve” for “they served”, “dilutions are” for “dilutions were”
Cotton plants at the cotyledon stage (one plant per pot) were sprayed by an automated electrostatic plant sprayer equipped with an atomizing spray nozzle. The plants were dried in the sprayer fume hood and then removed from the sprayer. Each pot was placed into a plastic cup and about 10 to 12 whitefly adults (approximately 3-5 days old) were introduced. The insects were collected using an aspirator and a nontoxic Tygon® tubing connected to a barrier pipette tip. The tip, containing the collected insects, were then gently inserted into the soil containing the treated plant, allowing insects to crawl out of the tip to reach the foliage for feeding. Cups were covered with a reusable screened lid. Test plants were maintained in a growth room at about 25° C. and about 20-40% relative humidity for 3 days, avoiding direct exposure to fluorescent light (24 hour photoperiod) to prevent trapping of heat inside the cup. Mortality was assessed 3 days after treatment, compared to untreated control plants.

Measured: mortality at 500 ppm

FC(F)(F)c1nc(-c2cccnc2)sc1-c1ccn(-c2ncccn2)n1 [C.2, 2-[3-(2-Pyridin-3-yl-4-trifluoromethyl-thiazol-5-yl)-pyrazol-1-yl]-pyrimidine]
≥ 75%: [1] | [2] | [3]

Clc1nc(-c2cccnc2)sc1-c1ccccn1 [C.4, 4-chloro-5-(2-pyridyl)-2-(3-pyridyl)thiazole]
≥ 75%: [1] | [3] | [4]
